{
  "source": "patent US6943181B2",
  "about": "“Use of substituted gamma-lactone compounds as pharmaceutical preparations” (Grunenthal GmbH, priority 2001, dated 2005)",
  "data": [
    {"molecular_target": "T1, nitrogen monoxide synthase (NO synthase) (Rattus norvegicus, UniProt P29476)", "T1 construct": "the supernatant was then decanted off and frozen in portions; from tissue; host or cells: rat cerebellum (homogenate, 20,000 g supernatant)", "assay": "HTS-NOS assay (nitrogen monoxide synthase assay)", "type": "biochemical", "details": "compound at 10 μM; enzyme preparation from rat cerebella; [3H]-arginine substrate", "description": "This assay makes it possible to determine the percentage inhibition of NO synthase by a compound of the general formula I used according to the invention by measuring NOS activity on exposure to the compound. NO synthase is here mixed under suitable conditions together with radioactively labelled arginine and the particular compound of the general formula I. After termination of the NO formation reaction at a predetermined time, the quantity of unconverted arginine is directly or indirectly determined. […] This assay may be carried out at follows: • (a) Incubation of the NO synthase with labelled arginine as the substrate in a reaction vessel, • (b) Separation of the labelled arginine from the labelled citrulline optionally arising as a product of the enzymatic reaction at a time at which the concentration of citrulline is rising, • (c) Measurement of the quantity of arginine separated in each case.\nSeparation is performed by means of a filter plate membrane.\nRadioactive arginine is used as the substrate in this HTS-NOS assay. Depending on the type of microtitre plate (MTP), the assay volume may be selected in the range between 25 μl and 250 μl. Depending on the enzyme source used, cofactors and coenzymes are added. The batches are incubated in this microtitre plate (assay MTP) according to step (a) at room temperature and, depending on the enzyme activity used (units), lasts between 5 and 60 minutes. On completion of incubation (step (a)), the plate is placed in a cell harvester, which is equipped with an MTP which has a cation exchange membrane as a filter bottom (filter MTP). All the batches from the assay MTP are transferred into this filter MTP and suction filtered through a cation exchange filter plate, a paper filter loaded with phosphate groups. The filter MTP is then washed with buffer or water. This procedure binds the remaining substrate arginine onto the cation exchanger, while the enzymatically formed radioactive citrulline is quantitatively eluted. Once the filter MTP has been dried and scintillation liquid added, the bound arginine can be counted in the scintillation counter. Low radioactivity indicates an uninhibited NOS reaction. An inhibited enzyme reaction means that the radioactive arginine has not been converted. This means that there is a high level of radioactivity on the filter.\n• Arginine, L-[2,3,4-^3H]-monohydrochloride; item no. […] The pH value of the buffer was adjusted to 7.4 at 25° C. • Washing medium: H2O Enzyme Preparation\nRat cerebella were used as the starting tissue. The animals were stunned and killed, the brain tissue, the cerebellum, was dissected out, 1 ml of enzyme preparation buffer (4° C.) was added per cerebellum, and the tissue was disrupted for 1 min at 6000 rpm in a Polytron homogeniser. The mixture was then centrifuged at 4° C. for 15 min at 20,000 g, and the supernatant was then decanted off and frozen in portions at −80° C. (discarding the precipitate).\n96-Well MTPs with a well capacity of ≦250 μl were used Pipetting sequence: see table 1:\nOnce the pipetting operation was complete, a lid was laid on top of this MTP (assay MTP). Incubation at 25° C. (room temperature (RT)) for 5-60 min, depending on the quantity and activity of the enzyme used.\nThe contents of the assay MTP were then transferred with the assistance of a 96 well cell harvester into a 96 well cation exchange MTP (filter MTP) and suction filtered. A single washing with […] of H2O (from a trough) was then performed.\nThe plate was then dried for 1 h at 60° C. in a drying cabinet. The bottom of the filter MTP was then carefully sealed from beneath with a “back seal”. 35 μl of scintillating material were then pipetted into each well. The top of the plate was also sealed with a “top seal”. After 1 hour's waiting time, the plate was assessed on the β-counter.", "units": {"inhibition at 10 µM": "%", "NOS (% inhibition)": "%"}, "values": [
      {"smiles": "CC1(c2ccc3c(c2)OCO3)CC(Nc2n[nH]cc2C#N)C(=O)O1", "note": "(centres unmarked) [Example 32, 3-(5-Benzo[1,3]dioxol-5-yl-5-methyl-2-oxo-tetrahydro-furan-3-ylamino)-1H-pyrazole-4-carbonitrile]", "inhibition at 10 µM": 41},
      {"smiles": "CCOC(=O)c1c[nH]nc1NC1CC(C)(c2ccc3c(c2)OCO3)OC1=O", "note": "(centres unmarked) [Example 33, 3-(5-Benzo[1,3]dioxol-5-yl-5-methyl-2-oxo-tetrahydro-furan-3-ylamino)-1H-pyrazole-4-carboxylic acid ethyl ester]", "inhibition at 10 µM": 45},
      {"smiles": "CC1(c2ccc3c(c2)OCO3)CC(Nc2ncccc2[N+](=O)[O-])C(=O)O1", "note": "(centres unmarked) [Example 34, 5-Benzo[1,3]dioxol-5-yl-5-methyl-3-(3-nitro-pyridin-2-ylamino)-dihydro-furan-2-one]", "inhibition at 10 µM": 40},
      {"smiles": "Cc1cc(C)nc(NC2CC(C)(c3ccc4c(c3)CCCC4)OC2=O)c1", "note": "(centres unmarked) [Example 35, 3-(4,6-Dimethyl-pyridin-2-ylamino)-5-methyl-5-(5,6,7,8-tetrahydro-naphthalen-2-yl)-dihydro-furan-2-one]", "inhibition at 10 µM": 42},
      {"smiles": "Cc1cc(C)nc(NC2CC(C)(c3ccc4ccccc4c3)OC2=O)c1", "note": "(centres unmarked) [Example 36, 3-(4,6-Dimethyl-pyridin-2-ylamino)-5-methyl-5-naphthalen-2-yl-dihydro-furan-2-one]", "inhibition at 10 µM": 65},
      {"smiles": "Cc1ccnc(NC2CC(C)(c3ccc4c(c3)OCO4)OC2=O)c1", "note": "(centres unmarked) [Example 37, 5-Benzo[1,3]dioxol-5-yl-5-methyl-3-(4-methyl-pyridin-2-ylamino)-dihydro-furan-2-one]", "inhibition at 10 µM": 50},
      {"smiles": "Cc1ccnc(NC2CC(C)(c3ccc4c(c3)CCCC4)OC2=O)c1", "note": "(centres unmarked) [Example 38, 5-Methyl-3-(4-methyl-pyridin-2-ylamino)-5-(5,6,7,8-tetrahydro-naphthalen-2-yl)-dihydro-furan-2-one]", "inhibition at 10 µM": 55},
      {"smiles": "Cc1ccc(NC2CC(C)(c3ccc4c(c3)OCO4)OC2=O)nc1", "note": "(centres unmarked) [Example 39, 5-Benzo[1,3]dioxol-5-yl-5-methyl-3-(5-methyl-pyridin-2-ylamino)-dihydro-furan-2-one]", "inhibition at 10 µM": 44},
      {"smiles": "Cc1cccc(NC2CC(C)(c3ccc4c(c3)OCO4)OC2=O)n1", "note": "(centres unmarked) [Example 40, 5-Benzo[1,3]dioxol-5-yl-5-methyl-3-(6-methyl-pyridin-2-ylamino)-dihydro-furan-2-one]", "inhibition at 10 µM": 53},
      {"smiles": "CC1(c2ccc3c(c2)CCCC3)CC(Nc2ncc(Br)cc2[N+](=O)[O-])C(=O)O1", "note": "(centres unmarked) [Example 41, 3-(5-Bromo-3-nitro-pyridin-2-ylamino)-5-methyl-5-(5,6,7,8-tetrahydro-naphthalen-2-yl)-dihydro-furan-2-one]", "inhibition at 10 µM": 53},
      {"smiles": "CC(C)C1(c2ccccc2)CC(Nc2ncc(Br)cc2[N+](=O)[O-])C(=O)O1", "note": "(centres unmarked) [Example 42, 3-(5-Bromo-3-nitro-pyridin-2-ylamino)-5-isopropyl-5-phenyl-dihydro-furan-2-one]", "inhibition at 10 µM": 41},
      {"smiles": "CC(C)C1(c2ccccc2)CC(Nc2ccc([N+](=O)[O-])cn2)C(=O)O1", "note": "(centres unmarked) [Example 43, 5-Isopropyl-3-(5-nitro-pyridin-2-ylamino)-5-phenyl-dihydro-furan-2-one]", "inhibition at 10 µM": 45},
      {"smiles": "CC1(c2ccc3ccccc3c2)CC(Nc2ccc([N+](=O)[O-])cn2)C(=O)O1", "note": "(centres unmarked) [Example 44, 5-Methyl-5-naphthalen-2-yl-3-(5-nitro-pyridin-2-ylamino)-dihydro-furan-2-one]", "inhibition at 10 µM": 47},
      {"smiles": "CC(C)C1(c2ccccc2)CC(Nc2ncccn2)C(=O)O1", "note": "(centres unmarked) [Example 45, 5-Isopropyl-5-phenyl-3-(pyrimidin-2-ylamino)-dihydro-furan-2-one]", "inhibition at 10 µM": 58},
      {"smiles": "CCOC(=O)c1c[nH]nc1NC1CC(C)(c2ccc(I)cc2)OC1=O", "note": "(centres unmarked) [Example 46, 3-[5-(4-Iodo-phenyl)-5-methyl-2-oxo-tetrahydro-furan-3-ylamino]-1H-pyrazole-4-carboxylic acid ethyl ester]", "inhibition at 10 µM": 44},
      {"smiles": "CC1(c2ccc(Br)cc2)CC(Nc2ccc(Br)cn2)C(=O)O1", "note": "(centres unmarked) [Example 47, 5-(4-Bromo-phenyl)-3-(5-bromo-pyridin-2-ylamino)-5-methyl-dihydro-furan-2-one]", "inhibition at 10 µM": 54},
      {"smiles": "Cc1cnc(NC2CC(C)(c3cccc4ccccc34)OC2=O)c(Br)c1", "note": "(stereo not drawn) [Example 48, 3-(3-Bromo-5-methyl-pyridin-2-ylamino)-5-methyl-5-naphthalen-l-yl-dihydro-furan-2-one]", "NOS (% inhibition)": 45},
      {"smiles": "CCCc1cccc(NC2CC(C)(c3cccc4ccccc34)OC2=O)n1", "note": "(stereo not drawn) [Example 49, 5-Methyl-5-naphthalen-l-yl-3-(6-propyl-pyridin-2-ylamino)-dihydro-furan-2-one]", "NOS (% inhibition)": 53},
      {"smiles": "CCCc1cccc(NC2CC(C)(c3cccc(Cl)c3)OC2=O)n1", "note": "(centres unmarked) [Example 50, 5-(3-Chloro-phenyl)-5-methyl-3-(6-propyl-pyridin-2-ylamino)-dihydro-furan-2-one]", "inhibition at 10 µM": 61},
      {"smiles": "Cc1ccnc(NC2CC(C)(c3cccc(Cl)c3)OC2=O)c1[N+](=O)[O-]", "note": "(centres unmarked) [Example 51, 5-(3-Chloro-phenyl)-5-methyl-3-(4-methyl-3-nitro-pyridin-2-ylamino)-dihydro-furan-2-one]", "inhibition at 10 µM": 50},
      {"smiles": "Cc1ccnc(NC2CC(C)(c3ccc(Br)cc3)OC2=O)c1[N+](=O)[O-]", "note": "(centres unmarked) [Example 52, 5-(4-Bromo-phenyl)-5-methyl-3-(4-methyl-3-nitro-pyridin-2-ylamino)-dihydro-furan-2-one]", "inhibition at 10 µM": 43},
      {"smiles": "Cc1nc(NC2CC(C)(c3ccc(I)cc3)OC2=O)ccc1Br", "note": "(centres unmarked) [Example 54, 3-(5-Bromo-6-methyl-pyridin-2-ylamino)-5-(4-iodo-phenyl)-5-methyl-dihydro-furan-2-one]", "inhibition at 10 µM": 70},
      {"smiles": "CC1(c2ccc(I)cc2)CC(Nc2ncccc2OCc2ccccc2)C(=O)O1", "note": "(centres unmarked) [Example 55, 3-(3-Benzyloxy-pyridin-2-ylamino)-5-(4-iodo-phenyl)-5-methyl-dihydro-furan-2-one]", "inhibition at 10 µM": 44},
      {"smiles": "CC1(c2ccc(Br)cc2)CC(Nc2ncccc2OCc2ccccc2)C(=O)O1", "note": "(centres unmarked) [Example 56, 3-(3-Benzyloxy-pyridin-2-ylamino)-5-(4-bromo-phenyl)-5-methyl-dihydro-furan-2-one]", "inhibition at 10 µM": 59},
      {"smiles": "Cc1cc(C)nc(NC2CC(C)(c3ccc(I)cc3)OC2=O)c1", "note": "(centres unmarked) [Example 57, 3-(4,6-Dimethyl-pyridin-2-ylamino)-5-(4-iodo-phenyl)-5-methyl-dihydro-furan-2-one]", "inhibition at 10 µM": 72},
      {"smiles": "Cc1cc(C)nc(NC2CC(C)(c3cccc(Cl)c3)OC2=O)c1", "note": "(centres unmarked) [Example 58, 5-(3-Chloro-phenyl)-3-(4,6-dimethyl-pyridin-2-ylamino)-5-methyl-dihydro-furan-2-one]", "inhibition at 10 µM": 73},
      {"smiles": "Cc1cccnc1NC1CC(C)(c2ccc(Br)cc2)OC1=O", "note": "(centres unmarked) [Example 59, 5-(4-Bromo-phenyl)-5-methyl-3-(3-methyl-pyridin-2-ylamino)-dihydro-furan-2-one]", "inhibition at 10 µM": 45},
      {"smiles": "Cc1ccnc(NC2CC(C)(c3ccc(Br)cc3)OC2=O)c1", "note": "(centres unmarked) [Example 60, 5-(4-Bromo-phenyl)-5-methyl-3-(4-methyl-pyridin-2-ylamino)-dihydro-furan-2-one]", "inhibition at 10 µM": 59},
      {"smiles": "CCCc1nc(NC2CC(C)(c3cc(OC)cc(OC)c3)OC2=O)ncc1C(=O)OCC", "note": "(centres unmarked) [Example 61, 2-[5-(3,5-Dimethoxy-phenyl)-5-methyl-2-oxo-tetrahydro-furan-3-ylamino]-4-propyl-pyrimidine-5-carboxylic acid ethyl ester]", "inhibition at 10 µM": 40}
    ]}
  ]
}
